Counter-ions that a name gives are not always drawn.
Assays:
Type in all cases: in vivo
[1] = system: ECHCG (Echinochloa crusgalli (L.) Beauv., barnyardgrass); assay: Example I postemergence foliar-applied mixtures, direct seeded rice weeds, greenhouse: ECHCG
Method: (§1) Seeds or nutlets of the desired test plant species were planted in a soil matrix prepared by mixing a loam or sandy loam soil (e.g., 28.6 percent silt, 18.8 percent clay, and 52.6 percent sand, with a pH of about 5.8 and an organic matter content of about 1.8 percent) and calcareous grit in an 80 to 20 ratio. The soil matrix was contained in plastic pots with a volume of 1 quart and a surface area of 83.6 square centimeters (cm^2). […] The plants were grown for 8-22 days in a greenhouse with an approximate 14 hr photoperiod which was maintained at about 29° C. during the day and 26° C. during the night. Nutrients (Peters Excel® 15-5-15 5-Ca 2-Mg and iron chelate) were applied in the irrigation solution as needed and water was added on a regular basis. Supplemental lighting was provided with overhead metal halide 1000-Watt lamps as necessary. The plants were employed for testing when they reached the first through fourth true leaf stage.
(§2) Treatments consisted of the acid or esters of 4-amino-3-chloro-5-fluoro-6-(4-chloro-2-fluoro-3-methoxy-phenyl)pyridine-2-carboxylic acid (Compound A), each formulated as an SC (suspension concentrate), and various herbicidal components alone and in combination. Forms of compound A were applied on an acid equivalent basis.
(§3) For treatments comprised of formulated compounds, measured amounts of compounds were placed individually in 25 mL glass vials and diluted in a volume of 1.25% (v/v) Agri-Dex® crop oil concentrated to obtain 12× stock solutions. […] Application solutions were prepared by adding an appropriate amount of each stock solution (e.g., 1 mL) and diluted to the appropriate final concentrations with the addition of 10 mL of an aqueous mixture of 1.25% (v/v) crop oil concentrate so that the final spray solutions contained 1.25+/−0.05% (v/v) crop oil concentrate.
(§4) All stock solutions and applications solutions were visually inspected for compound compatibility prior to application. Spray solutions were applied to the plant material with an overhead Mandel track sprayer equipped with a 8002E nozzles calibrated to deliver 187 L/ha over an application area of 0.503 m^2 at a spray height of 18 to 20 inches (46 to 50 cm) above average plant canopy height. Control plants were sprayed in the same manner with the solvent blank.
(§5) The treated plants and control plants were placed in a greenhouse as described above and watered by sub-irrigation to prevent wash-off of the test compounds. After approximately 3 weeks, the condition of the test plants as compared with that of the untreated plants was determined visually and scored on a scale of 0 to 100 percent where 0 corresponds to no injury or growth inhibition and 100 corresponds to complete kill.
(§6) Colby's equation was used to determine the herbicidal effects expected from the mixtures (Colby, S. R. 1967. Calculation of the synergistic and antagonistic response of herbicide combinations. Weeds 15:20-22.).

[2] = system: ECHCO (Echinochloa colona (L.) Link, junglerice); assay: Example I postemergence foliar-applied mixtures, direct seeded rice weeds, greenhouse: ECHCO
Method: as §1, §2, §3, §4, §5, §6

[3] = system: LEFCH (Leptochloa chinensis (L.) Nees, Chinese sprangletop); assay: Example I postemergence foliar-applied mixtures, direct seeded rice weeds, greenhouse: LEFCH
Method: as §1, §2, §3, §4, §5, §6

[4] = system: IPOHE (Ipomoea hederacea Jacq., ivyleaf morningglory); assay: Example I postemergence foliar-applied mixtures, direct seeded rice weeds, greenhouse: IPOHE
Method: as §1, §2, §3, §4, §5, §6

[5] = system: DIGSA (Digitaria sanguinalis (L.) Scop., large crabgrass); assay: Example I postemergence foliar-applied mixtures, direct seeded rice weeds, greenhouse: DIGSA
Method: as §1, §2, §3, §4, §5, §6

[6] = system: SORHA (Sorghum halepense (L.) Pers., johnsongrass); assay: Example III postemergence foliar-applied mixtures, row crop weeds (corn, soybean), greenhouse: SORHA
Method: Seeds or nutlets of the desired test plant species were planted in a soil matrix prepared by mixing a loam or sandy loam soil (e.g., 43 percent silt, 19 percent clay, and 38 percent sand, with a pH of about 8.1 and an organic matter content of about 1.5 percent) and calcareous grit in an 80 to 20 ratio. The soil matrix was contained in plastic pots with a surface area of 84.6 square centimters (cm^2) and a volume of 560 cubic centimeters (cm^3). […] The plants were grown for 7-31 days (d) in a greenhouse with an approximate 15 hour (h) photoperiod which was maintained at about 23-29° C. during the day and 22-28° C. during the night. Nutrients (Peters Excel® 15-5-15 5-Ca 2-Mg) and water were added on a regular basis and supplemental lighting was provided with overhead metal halide 1000-Watt lamps as necessary. The plants were employed for testing when they reached the first, second, or third true leaf stage.
Treatments consisted of the acid or esters of 4-amino-3-chloro-5-fluoro-6-(4-chloro-2-fluoro-3-methoxy-phenyl)pyridine-2-carboxylic acid (Compound A), each formulated as an
SC (suspension concentrate), and various herbicidal components alone and in combination. Forms of compound A were applied on an acid equivalent basis.
Other herbicidal components were applied on an acid equivalent or active ingredient basis and included the 5-enolpyruvylshikimate-3-phosphate synthase (EPSPS)-inhibiting herbicide, glyphosate dimethylamine salt, formulated as Durango DMA® and the glutamine synthase (GS)-inhibiting herbicide, glufosinate ammonium, formulated as Ignite® 280.
For treatments comprised of formulated compounds, measured amounts of compounds were placed individually in 25 mL glass vials and diluted in a volume of 1.5% (v/v) Agri-dex® crop oil concentrate to obtain 6× stock solutions. […] Application solutions were prepared by adding an appropriate amount of each stock solution (typically 2 mL) and diluted to the appropriate final concentrations with the addition of an aqueous mixture of 1.5% (v/v) crop oil concentrate and water so that the final spray solutions contained 1.25% (v/v) crop oil concentrate.
All stock solutions and applications solutions were visually inspected for compound compatibility prior to application. Compound requirements are based upon a 12 mL application volume at a rate of 187 liters per hectare (L/ha). Formulated compounds were applied to the plant material with an overhead Mandel track sprayer equipped with 8002E nozzles calibrated to deliver 187 L/ha over an application area of 0.503 square meters (m^2) at a spray height of 18 to 20 inches (46 to 50 cm) above the average plant canopy height. Control plants were sprayed in the same manner with the solvent blank.
The treated plants and control plants were placed in a greenhouse as described above and watered by sub-irrigation to prevent wash-off of the test compounds. After approximately 2 weeks, the condition of the test plants as compared with that of the untreated plants was determined visually and scored on a scale of 0 to 100 percent where 0 corresponds to no injury or growth inhibition and 100 corresponds to complete kill.
The following equation was used to calculate the expected activity of mixtures containing two active ingredients, A and B: […]

[7] = glufosinate ammonium alone, 135.5 gae/ha
[8] = glufosinate ammonium alone, 271 gae/ha
[9] = Compound A Benzyl Ester alone, 4.38 gae/ha
[10] = Compound A Benzyl Ester alone, 8.75 gae/ha
[11] = Compound A Benzyl Ester alone, 17.5 gae/ha
[12] = Compound A Benzyl Ester alone, 8 gae/ha
[13] = Compound A Benzyl Ester alone, 16 gae/ha
[14] = Compound A Acid alone, 4.38 gae/ha
[15] = Compound A Acid alone, 8.75 gae/ha
[16] = Compound A Acid alone, 19.4 gae/ha
[17] = Compound A Acid alone, 17.5 gae/ha
[18] = Compound A Acid alone, 3.75 gae/ha

**Q.** For `CP(=O)(O)CCC(N)C(=O)O` (stereo not drawn) [Glufosinate ammonium salt, 2-amino-4-(hydroxymethylphosphinyl)butanoic acid monoammonium salt, reference compound], which “Visual Weed Control (%) - 21 DAA ECHCG Obs” value [1, 7] is on record?
**A.** 60%

**Q.** What about the “Visual Weed Control (%) - 21 DAA ECHCG Obs” value [1, 8] of the same molecule?
**A.** 10%

**Q.** And the “Visual Weed Control (%) - 21 DAA ECHCO Obs” value [2, 7]?
**A.** 0%

**Q.** And the “Visual Weed Control (%) - 21 DAA ECHCO Obs” value [2, 8]?
**A.** 0%

**Q.** What about the “Visual Weed Control (%) - 21 DAA LEFCH Obs” value [3, 7] of the same molecule?
**A.** 0%

**Q.** And the “Visual Weed Control (%) - 21 DAA LEFCH Obs” value [3, 8]?
**A.** 10%

**Q.** And the “Visual Weed Control (%) - 21 DAA IPOHE Obs” value ([4]; glufosinate ammonium alone, 112.5 gai/ha)?
**A.** 10%

**Q.** And the “Visual Weed Control (%) - 20 DAA IPOHE Obs” value ([4]; glufosinate ammonium alone, 542 gai/ha)?
**A.** 50%

**Q.** And the “Visual Weed Control (%) - 21 DAA DIGSA Obs” value [5, 7]?
**A.** 0%

**Q.** And the “Visual Weed Control (%) - 13 DAA SORHA Obs” value [6, 8]?
**A.** 20%

**Q.** What about the “Visual Weed Control (%) - 13 DAA SORHA Obs” value ([6]; glufosinate ammonium alone, 542 gae/ha) of the same molecule?
**A.** 25%

**Q.** Which results are given for `COc1c(Cl)ccc(-c2nc(C(=O)OCc3ccccc3)c(Cl)c(N)c2F)c1F` [Compound A Benzyl Ester]?
**A.** Visual Weed Control (%) - 21 DAA ECHCG Obs [1, 9]: 10%; Visual Weed Control (%) - 21 DAA ECHCG Obs [1, 10]: 85%; Visual Weed Control (%) - 21 DAA ECHCO Obs [2, 9]: 70%; Visual Weed Control (%) - 21 DAA ECHCO Obs [2, 10]: 75%; Visual Weed Control (%) - 21 DAA LEFCH Obs [3, 9]: 0%; Visual Weed Control (%) - 21 DAA LEFCH Obs [3, 10]: 40%; Visual Weed Control (%) - 21 DAA LEFCH Obs [3, 11]: 45%; Visual Weed Control (%) - 21 DAA IPOHE Obs [4, 9]: 10%; Visual Weed Control (%) - 21 DAA IPOHE Obs [4, 12]: 10%; Visual Weed Control (%) - 21 DAA IPOHE Obs [4, 10]: 10%; Visual Weed Control (%) - 20 DAA IPOHE Obs [4, 13]: 18%; Visual Weed Control (%) - 21 DAA IPOHE Obs [4, 13]: 10%; Visual Weed Control (%) - 21 DAA IPOHE Obs [4, 11]: 25%; Visual Weed Control (%) - 21 DAA IPOHE Obs ([4]; Compound A Benzyl Ester alone, 32 gae/ha): 45%; Visual Weed Control (%) - 21 DAA DIGSA Obs [5, 12]: 25%; Visual Weed Control (%) - 20 DAA DIGSA Obs [5, 13]: 18%; Visual Weed Control (%) - 21 DAA DIGSA Obs [5, 13]: 30%; Visual Weed Control (%) - 13 DAA SORHA Obs ([6]; Compound A Benzyl Ester alone, 3.75 gae/ha): 0%; Visual Weed Control (%) - 13 DAA SORHA Obs ([6]; Compound A Benzyl Ester alone, 7.5 gae/ha): 0%; Visual Weed Control (%) - 13 DAA SORHA Obs ([6]; Compound A Benzyl Ester alone, 15 gae/ha): 10%

**Q.** For `COc1c(Cl)ccc(-c2nc(C(=O)O)c(Cl)c(N)c2F)c1F` [Compound A Acid, 4-amino-3-chloro-6-(4-chloro-2-fluoro-3-methoxyphenyl)-5-fluoropyridine-2-carboxylic acid], which “Visual Weed Control (%) - 21 DAA ECHCG Obs” value [1, 14] is on record?
**A.** 15%

**Q.** And the “Visual Weed Control (%) - 21 DAA ECHCG Obs” value [1, 15]?
**A.** 50%

**Q.** What about the “Visual Weed Control (%) - 21 DAA ECHCO Obs” value ([2]; Compound A Acid alone, 4.38 gae/ha (Table 2)) of the same molecule?
**A.** 60%

**Q.** What about the “Visual Weed Control (%) - 21 DAA ECHCO Obs” value ([2]; Compound A Acid alone, 4.38 gae/ha (Tables 1, 9)) of the same molecule?
**A.** 70%

**Q.** What about the “Visual Weed Control (%) - 21 DAA ECHCO Obs” value ([2]; Compound A Acid alone, 8.75 gae/ha (Table 2)) of the same molecule?
**A.** 90%

**Q.** And the “Visual Weed Control (%) - 21 DAA ECHCO Obs” value ([2]; Compound A Acid alone, 8.75 gae/ha (Tables 1, 9))?
**A.** 75%

**Q.** What about the “Visual Weed Control (%) - 21 DAA LEFCH Obs” value ([3]; Compound A Acid alone, 17.5 gae/ha (Table 2)) of the same molecule?
**A.** 30%

**Q.** What about the “Visual Weed Control (%) - 21 DAA LEFCH Obs” value ([3]; Compound A Acid alone, 17.5 gae/ha (Tables 1, 9)) of the same molecule?
**A.** 0%

**Q.** And the “Visual Weed Control (%) - 20 DAA LEFCH Obs” value [3, 16]?
**A.** 5%

**Q.** What about the “Visual Weed Control (%) - 21 DAA IPOHE Obs” value [4, 14] of the same molecule?
**A.** 10%

**Q.** What about the “Visual Weed Control (%) - 21 DAA IPOHE Obs” value [4, 15] of the same molecule?
**A.** 35%

**Q.** What about the “Visual Weed Control (%) - 21 DAA IPOHE Obs” value [4, 17] of the same molecule?
**A.** 45%

**Q.** And the “Visual Weed Control (%) - 21 DAA DIGSA Obs” value [5, 14]?
**A.** 35%

**Q.** What about the “Visual Weed Control (%) - 21 DAA DIGSA Obs” value [5, 15] of the same molecule?
**A.** 50%

**Q.** And the “Visual Weed Control (%) - 21 DAA DIGSA Obs” value [5, 17]?
**A.** 40%

**Q.** What about the “Visual Weed Control (%) - 20 DAA DIGSA Obs” value [5, 16] of the same molecule?
**A.** 13%

**Q.** What about the “Visual Weed Control (%) - 13 DAA SORHA Obs” value [6, 18] of the same molecule?
**A.** 0%

**Q.** What about the “Visual Weed Control (%) - 16 DAA SORHA Obs” value [6, 18] of the same molecule?
**A.** 0%

**Q.** What about the “Visual Weed Control (%) - 13 DAA SORHA Obs” value ([6]; Compound A Acid alone, 7.5 gae/ha) of the same molecule?
**A.** 0%

**Q.** And the “Visual Weed Control (%) - 13 DAA SORHA Obs” value ([6]; Compound A Acid alone, 15 gae/ha)?
**A.** 0%

Source: US20140031227A1, “HERBICIDAL COMPOSITIONS COMPRISING 4-AMINO-3-CHLORO-5-FLUORO-6-(4-CHLORO-2-FLUORO-3-METHOXYPHENYL) PYRIDINE-2-CARBOXYLIC ACID OR A DERIVATIVE THEREOF AND GLYPHOSATE OR GLUFOSINATE” (DOW AGROSCIENCES LLC, priority 2012, published 2014)
